From patent publication US10428044B2, “3-amino-1,5,6,7-tetrahydro-4H-indol-4-ones” (Bayer Pharma Aktiengesellschaft, priority 2014, dated 2019)
pIC50: −log10 of the molar value.

Target: (recombinant) catalytic domain of human Bub1 (amino acids 704-1085) (Homo sapiens (Human), UniProt O43683)
Assay: Bub1 kinase assay (TR-FRET)
Format: biochemical
Conditions: ATP 10 μM final, peptide substrate 1 μM final, 60 min at 22° C., read-out: Biological Assay: Bub1 kinase assay median IC50
Method in brief: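 Compounds were serially diluted 1:3.4 from 2 mM DMSO stocks and incubated with the enzyme reaction for 60 min at 22° C. The reaction was stopped with EDTA, and biotinylated peptide phosphorylation was read by TR-FRET using Eu anti-mouse IgG, anti-phosphoserine antibody and streptavidin-XL665. IC50 was fitted by 4-parameter logistic to inhibition normalized to no-inhibitor and no-enzyme controls.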

Sequence of (recombinant) catalytic domain of human Bub1 (amino acids 704-1085) (O43683 704-1085): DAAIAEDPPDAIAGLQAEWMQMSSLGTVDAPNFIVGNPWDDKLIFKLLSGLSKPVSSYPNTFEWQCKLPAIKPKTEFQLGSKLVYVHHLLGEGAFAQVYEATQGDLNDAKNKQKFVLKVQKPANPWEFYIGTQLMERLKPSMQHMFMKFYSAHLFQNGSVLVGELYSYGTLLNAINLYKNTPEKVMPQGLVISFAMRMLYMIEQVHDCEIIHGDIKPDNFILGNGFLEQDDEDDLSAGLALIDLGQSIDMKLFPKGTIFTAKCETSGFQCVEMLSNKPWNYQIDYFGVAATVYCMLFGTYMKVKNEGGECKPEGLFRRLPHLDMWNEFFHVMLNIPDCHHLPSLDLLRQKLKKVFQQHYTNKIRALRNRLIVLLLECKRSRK

Going from `CC1(C)CC(=O)c2c([nH]c(-c3ccnc(C(F)F)c3)c2Nc2ccccc2)C1` [Example 400, 2-[2-(difluoromethyl)pyridin-4-yl]-6,6-dimethyl-3-(phenylamino)-1,5,6,7-tetrahydro-4H-indol-4-one] to `CC1(C)CC(=O)c2c([nH]c(-c3ccnc(C(F)F)c3)c2Nc2cccc(F)c2)C1` [Example 402, 2-[2-(difluoromethyl)pyridin-4-yl]-3-[(3-fluorophenyl)amino]-6,6-dimethyl-1,5,6,7-tetrahydro-4H-indol-4-one], the pIC50 falls from 6.80 to 6.51 (0.29 log units). The first is the more potent here.

Compared with `O=C1CCCc2[nH]c(-c3ccnc(C(F)F)c3)c(Nc3ccccc3)c21` [Example 401, 2-[2-(difluoromethyl)pyridin-4-yl]-3-(phenylamino)-1,5,6,7-tetrahydro-4H-indol-4-one], `COc1cnccc1-c1[nH]c2c(c1Nc1ccccc1)C(=O)CCC2` [Example 413, 2-(3-methoxypyridin-4-yl)-3-(phenylamino)-1,5,6,7-tetrahydro-4H-indol-4-one] is 0.91 log units higher in pIC50: 6.45 for the first, 7.36 for the second.

`COc1cnccc1-c1[nH]c2c(c1Nc1ccccc1)C(=O)CC(C)(C)C2` [Example 403, 2-(3-methoxypyridin-4-yl)-6,6-dimethyl-3-(phenylamino)-1,5,6,7-tetrahydro-4H-indol-4-one] and `CCOc1cnccc1-c1[nH]c2c(c1Nc1ccccc1)C(=O)CC(C)(C)C2` [Example 404, 2-(3-ethoxypyridin-4-yl)-6,6-dimethyl-3-(phenylamino)-1,5,6,7-tetrahydro-4H-indol-4-one] are within 0.2 log units of each other in pIC50: 8.03 for the first, 7.93 for the second.

`CCCOc1cnccc1-c1[nH]c2c(c1Nc1ccccc1)C(=O)CC(C)(C)C2` [Example 405, 6,6-dimethyl-3-(phenylamino)-2-(3-propoxypyridin-4-yl)-1,5,6,7-tetrahydro-4H-indol-4-one] and `CC1(C)CC(=O)c2c([nH]c(-c3ccncc3OCCO)c2Nc2ccccc2)C1` [Example 409, 2-[3-(2-hydroxyethoxy)pyridin-4-yl]-6,6-dimethyl-3-(phenylamino)-1,5,6,7-tetrahydro-4H-indol-4-one] are within 0.2 log units of each other in pIC50: 8.08 for the first, 8.02 for the second.

Going from `CC(C)Oc1cnccc1-c1[nH]c2c(c1Nc1ccccc1)C(=O)CC(C)(C)C2` [Example 406, 6,6-dimethyl-3-(phenylamino)-2-[3-(propan-2-yloxy)pyridin-4-yl]-1,5,6,7-tetrahydro-4H-indol-4-one] to `CC1(C)CC(=O)c2c([nH]c(-c3ccncc3OC(C)(C)C)c2Nc2ccccc2)C1` [Example 407, 2-(3-tert-butoxypyridin-4-yl)-6,6-dimethyl-3-(phenylamino)-1,5,6,7-tetrahydro-4H-indol-4-one], the pIC50 falls from 7.27 to 6.22 (1.05 log units).

Going from `CC1(C)CC(=O)c2c([nH]c(-c3ccncc3OCC(F)F)c2Nc2ccccc2)C1` [Example 408, 2-[3-(2,2-difluoroethoxy)pyridin-4-yl]-6,6-dimethyl-3-(phenylamino)-1,5,6,7-tetrahydro-4H-indol-4-one] to `CC1(C)CC(=O)c2c([nH]c(-c3ccncc3OCC(F)(F)F)c2Nc2ccccc2)C1` [Example 412, 6,6-dimethyl-3-(phenylamino)-2-[3-(2,2,2-trifluoroethoxy)pyridin-4-yl]-1,5,6,7-tetrahydro-4H-indol-4-one], the pIC50 falls from 8.19 to 7.55 (0.64 log units). The first is the more potent here.

First: COCCOc1cnccc1-c1[nH]c2c(c1Nc1ccccc1)C(=O)CC(C)(C)C2 [Example 410, 2-[3-(2-methoxyethoxy)pyridin-4-yl]-6,6-dimethyl-3-(phenylamino)-1,5,6,7-tetrahydro-4H-indol-4-one]
Second: CC1(C)CC(=O)c2c([nH]c(-c3ccncc3OCC3CC3)c2Nc2ccccc2)C1 [Example 411, 2-[3-(cyclopropylmethoxy)pyridin-4-yl]-6,6-dimethyl-3-(phenylamino)-1,5,6,7-tetrahydro-4H-indol-4-one]
The pIC50 of the first is 0.29 log units higher: 8.45 for the first, 8.16 for the second. The first is the more potent here.

Compared with `CC1(C)CC(=O)c2c([nH]c(-c3ccncc3)c2Nc2ccc(-c3ccccc3)cc2)C1` [Example 414, 3-(biphenyl-4-ylamino)-6,6-dimethyl-2-(pyridin-4-yl)-1,5,6,7-tetrahydro-4H-indol-4-one], `CC1(C)CC(=O)c2c([nH]c(-c3ccncc3)c2Nc2cc(-c3ccccc3)ccn2)C1` [Example 422, 6,6-dimethyl-3-[(4-phenylpyridin-2-yl)amino]-2-(pyridin-4-yl)-1,5,6,7-tetrahydro-4H-indol-4-one] is higher in pIC50: < 4.70 for the first, 6.48 for the second.

Going from `CC1(C)CC(=O)c2c([nH]c(-c3ccncc3)c2Nc2cccc(Cc3ccccc3)c2)C1` [Example 415, 3-[(3-benzylphenyl)amino]-6,6-dimethyl-2-(pyridin-4-yl)-1,5,6,7-tetrahydro-4H-indol-4-one] to `CC1(C)CC(=O)c2c([nH]c(-c3ccncc3)c2Nc2ccccc2Cc2ccccc2)C1` [Example 416, 3-[(2-benzylphenyl)amino]-6,6-dimethyl-2-(pyridin-4-yl)-1,5,6,7-tetrahydro-4H-indol-4-one], the pIC50 falls from 6.55 to 6.16 (0.39 log units). The first is the more potent here.

First: Cn1nccc1-c1cccc(Nc2c(-c3ccncc3)[nH]c3c2C(=O)CC(C)(C)C3)c1 [Example 417, 6,6-dimethyl-3-{[3-(1-methyl-1H-pyrazol-5-yl)phenyl]amino}-2-(pyridin-4-yl)-1,5,6,7-tetrahydro-4H-indol-4-one]
Second: CC1(C)CC(=O)c2c([nH]c(-c3ccncc3)c2Nc2cccc(-c3ccco3)c2)C1 [Example 419, 3-{[3-(furan-2-yl)phenyl]amino}-6,6-dimethyl-2-(pyridin-4-yl)-1,5,6,7-tetrahydro-4H-indol-4-one]
The pIC50 of the first is 1.37 log units lower: 6.56 for the first, 7.93 for the second.

`CC1(C)CC(=O)c2c([nH]c(-c3ccncc3)c2Nc2cccc(-c3ccsc3)c2)C1` [Example 418, 6,6-dimethyl-2-(pyridin-4-yl)-3-{[3-(thiophen-3-yl)phenyl]amino}-1,5,6,7-tetrahydro-4H-indol-4-one] and `CC1(C)CC(=O)c2c([nH]c(-c3ccncc3)c2Nc2cccc(-c3cccs3)c2)C1` [Example 420, 6,6-dimethyl-2-(pyridin-4-yl)-3-{[3-(thiophen-2-yl)phenyl]amino}-1,5,6,7-tetrahydro-4H-indol-4-one] are within 0.2 log units of each other in pIC50: 7.58 for the first, 7.60 for the second.

First: CC1(C)CC(=O)c2c([nH]c(-c3ccncc3)c2Nc2cccc(Oc3ccccc3)c2)C1 [Example 421, 6,6-dimethyl-3-[(3-phenoxyphenyl)amino]-2-(pyridin-4-yl)-1,5,6,7-tetrahydro-4H-indol-4-one]
Second: CC1(C)CC(=O)c2c([nH]c(-c3ccncc3)c2Nc2cccc(-c3ccccc3)n2)C1 [Example 423, 6,6-dimethyl-3-[(6-phenylpyridin-2-yl)amino]-2-(pyridin-4-yl)-1,5,6,7-tetrahydro-4H-indol-4-one]
The pIC50 of the first is 0.87 log units lower: 6.70 for the first, 7.57 for the second. The second is the more potent here.

Compared with `CC1(C)CC(=O)c2c([nH]c(-c3ccncc3)c2Nc2ccccc2CO)C1` [Example 426, 3-{[2-(hydroxymethyl)phenyl]amino}-6,6-dimethyl-2-(pyridin-4-yl)-1,5,6,7-tetrahydro-4H-indol-4-one], `CC1(C)CC(=O)c2c([nH]c(-c3ccncc3)c2Nc2ccccc2CCO)C1` [Example 427, 3-{[2-(2-hydroxyethyl)phenyl]amino}-6,6-dimethyl-2-(pyridin-4-yl)-1,5,6,7-tetrahydro-4H-indol-4-one] is 0.51 log units lower in pIC50: 8.59 for the first, 8.08 for the second.

Compared with `C#Cc1cccc(Nc2c(-c3ccncc3)[nH]c3c2C(=O)CC(C)(C)C3)c1` [Example 428, 3-[(3-ethynylphenyl)amino]-6,6-dimethyl-2-(pyridin-4-yl)-1,5,6,7-tetrahydro-4H-indol-4-one], `CC1(C)CC(=O)c2c([nH]c(-c3ccncc3)c2Nc2ccc(C#N)cc2)C1` [Example 433, 4-{[6,6-dimethyl-4-oxo-2-(pyridin-4-yl)-4,5,6,7-tetrahydro-1H-indol-3-yl]amino}benzonitrile] is 0.76 log units lower in pIC50: 6.29 for the first, 5.53 for the second. The first is the more potent here.

Going from `CC1(C)CC(=O)c2c([nH]c(-c3ccncc3)c2Nc2ccccc2C(N)=O)C1` [Example 429, 2-{[6,6-dimethyl-4-oxo-2-(pyridin-4-yl)-4,5,6,7-tetrahydro-1H-indol-3-yl]amino}benzamide] to `CC1(C)CC(=O)c2c([nH]c(-c3ccncc3)c2Nc2ccc(S(N)(=O)=O)cc2)C1` [Example 432, 4-{[6,6-dimethyl-4-oxo-2-(pyridin-4-yl)-4,5,6,7-tetrahydro-1H-indol-3-yl]amino}benzenesulfonamide], the pIC50 falls from 7.15 to 5.63 (1.52 log units).

Compared with `CN(C)c1ccc(Nc2c(-c3ccncc3)[nH]c3c2C(=O)CC(C)(C)C3)cc1` [Example 435, 3-{[4-(dimethylamino)phenyl]amino}-6,6-dimethyl-2-(pyridin-4-yl)-1,5,6,7-tetrahydro-4H-indol-4-one], `CC1(C)CC(=O)c2c([nH]c(-c3ccnc(CO)c3)c2Nc2ccccc2)C1` [Example 437, 2-[2-(hydroxymethyl)pyridin-4-yl]-6,6-dimethyl-3-(phenylamino)-1,5,6,7-tetrahydro-4H-indol-4-one] is 0.38 log units higher in pIC50: 5.86 for the first, 6.24 for the second. The second is the more potent here.

Compared with `O=C1CC(C(F)(F)F)Cc2[nH]c(-c3ccncc3Cl)c(Nc3cccc(F)c3)c21` (stereo not drawn) [Example 436, 2-(3-chloropyridin-4-yl)-3-[(3-fluorophenyl)amino]-6-(trifluoromethyl)-1,5,6,7-tetrahydro-4H-indol-4-one], `CC1(C)CC(=O)c2c([nH]c(-c3ccncc3C(F)(F)F)c2Nc2ccccc2)C1` [Example 438, 6,6-dimethyl-3-(phenylamino)-2-[3-(trifluoromethyl)pyridin-4-yl]-1,5,6,7-tetrahydro-4H-indol-4-one] is 1.22 log units lower in pIC50: 7.68 for the first, 6.46 for the second. The first is the more potent here.

First: CC1(C)CC(=O)c2c([nH]c(-c3ccnc(S(N)(=O)=O)c3)c2Nc2ccccc2)C1 [Example 439, 4-[6,6-dimethyl-4-oxo-3-(phenylamino)-4,5,6,7-tetrahydro-1H-indol-2-yl]pyridine-2-sulfonamide]
Second: O=C1CC(CF)Cc2[nH]c(-c3ccncc3)c(Nc3ccccc3)c21 (stereo not drawn) [Example 442, 6-(fluoromethyl)-3-(phenylamino)-2-(pyridin-4-yl)-1,5,6,7-tetrahydro-4H-indol-4-one]
The pIC50 of the first is 1.97 log units lower: 6.19 for the first, 8.16 for the second. The second is the more potent here.
